Data as given in patent publication US11224633B2, “Kit for treating sepsis and/or any systemic (SIRS) or damaging cellular hyperinflammation” (priority 2015, dated 2022).

Key:
[1] = in vivo; cited from earlier work
[2] = test system: male IOPS Han Ico Wistar rats, septic shock by LPS Salmonella typhimurium
[3] = venous blood at euthanasia H 6h30, individual rats, selenite alone = group 2 perfusion
[4] = venous blood gases at euthanasia H 6h30, individual rats, selenite alone = group 2 perfusion

| SMILES | NOAEL No Adverse Effect Level determined in nutrition, per kg [1] [μg/kg per day] | ScvO2 or SaO2 ([2]; blood at euthanasia H 6h30, individual rats, selenite alone = group 2 perfusion) | Creat ([2]; creatinine at H 6h30, individual rats, selenite alone = group 2 perfusion) | Gly ([2]; glycemia at H 6h30, individual rats, selenite alone = group 2 perfusion) | survival of animals ([2]; group 4: control B2 then Na2SeO3 alone in 3 flash injections every 10 min, LPS 50 mg/kg) | Lactate level ([2]; individual rats, LPS 50 mg/kg, sample at H 6h30, selenite alone = group 2, 0.3 mg/kg Se perfused over 30 min, Sel-P over 30 min, combination = Sel-P then 3 flash injections of selenite 0.1 mg/kg) [mmol/L] | CO3H— [2, 3] | Venous lactate [2, 3] [mmol/L] | PCO2 [2, 4] [mmHg] | PaO2 [2, 4] [mmHg] | pH [2, 4] |
| --- | --- | --- | --- | --- | --- | --- | --- | --- | --- | --- | --- |
| [Se] [selenium] | 11 | – | – | – | – | – | – | – | – | – | – |
| O=[Se](O)O [sodium selenite] | – | 8.9 | 156 | 0.27 | do not survive | 8.75 | 19.6 | 8.75 | 97 | 16 | 6.906 |
